Experimental data published in patent US20070015759A1, “Metasubstituted thiazolidinones, their manufacture and use as a drug” (priority 2004, published 2007).

How the values were obtained:
[1] = system: human MaTu breast tumor cells; assay: Proliferation assay (crystal violet staining); type: cell-based; details: 96 h, incubated for 4 days with test substance, read-out: Inhibition of tumor cell proliferation (MaTu) IC50
Protocol: Cultivated human MaTu breast tumor cells were spread on plates to a thickness of 5000 cells per measuring point in a 96-hole multititerplate in 200 μl of the appropriate growth medium. After 24 hours the cells of one plate (the zero-point plate) were stained with crystal violet (see below), while the medium of the other plates was replaced by fresh culture medium (200 μl), to which was added the test substances in various concentrations (0 μM and in the range of 0.01 to 30 μm; the final concentration of the dimethylsulfoxide solvent was 0.5%). The cells were incubated for 4 days in the presence of the test substances. The cell proliferation was determined by the staining of the cells with crystal violet. The cells were fixed by the addition of 20 μl per measuring point of an 11% glutaraldehyde solution for 15 minutes at room temperature. After the fixed cells were washed three times with water, the plates were dried at room temperature. The cells were stained by the addition of 100 μl per measuring point of a 0.1% crystal violet solution (pH set at pH3 through the addition of acetic acid). After the fixed cells were washed three times with water, the plates were dried at room temperature. The coloring was dissolved by the addition of 100 μl per measuring point of a 10% acetic acid solution. Extinction was determined photometrically at a wave length of 595 nm. The percentage change of the cell growth was calculated by normalizing the measured values at the extinction value of the zero-point plate (=0%) and the extinction of the untreated cells (0 μM) (=100%).

[2] = molecular target: T1, Recombinant human Plk-1 (6×His) (Homo sapiens, UniProt P53350); assay: PLK enzyme assay (33P-γ-ATP incorporation into biotin casein, SPA beads); type: biochemical; details: 0.5 μM ATP, 0.7 μM casein, 90 minutes at room temperature, read-out: Inhibition PLK-1 IC50
T1 construct: 6xHis; made in house; host or cells: Hi5 insect cells, baculovirus
Protocol: Recombinant human Plk-1 (6×His) was purified from insect cells (Hi5) infected with a baculovirus.
10 ng (recombinant created, purified) PLK enzyme is incubated for 90 minutes at room temperature with biotin casein and 33P-γ-ATP as a sub-stratum in a volume of 15 μl in 384 well Greiner Small Volume Microtiterplates (final concentration in buffer: 660 ng/ ml PLK; 0.7 μM Casein, 0.5 μM ATP incl. 400 nCi/ml 33P-γ-ATP; 10 mM MgCl2, 1 mM MnCl2; 0.01% NP40; 1 mM DTT, Protease inhibitors; 0.1 mM Na2VO3 in 50 mM HEPES pH 7.5). At the end of the reaction a 5 μl stop solution (500 μM ATP; 500 mM EDTA; 1% triton ×100; 100 mg/ ml streptavidin coated SPA Beads in PBS) was added. After the microtiter plate is closed with foil, the beads are sedimented through centrifugation (10 min., 1500 rpm). The fixing of the 33P-γ-ATP in casein was set as a measure of the enzyme activity by β-Counting.
Test substances were introduced in various concentrations (0 μM, and in the range of 0.01-30 μM). The final concentration of the dimethylsulfoxide solvent in all concentrations amounted to 1.5%.

T1 sequence (P53350 whole entry): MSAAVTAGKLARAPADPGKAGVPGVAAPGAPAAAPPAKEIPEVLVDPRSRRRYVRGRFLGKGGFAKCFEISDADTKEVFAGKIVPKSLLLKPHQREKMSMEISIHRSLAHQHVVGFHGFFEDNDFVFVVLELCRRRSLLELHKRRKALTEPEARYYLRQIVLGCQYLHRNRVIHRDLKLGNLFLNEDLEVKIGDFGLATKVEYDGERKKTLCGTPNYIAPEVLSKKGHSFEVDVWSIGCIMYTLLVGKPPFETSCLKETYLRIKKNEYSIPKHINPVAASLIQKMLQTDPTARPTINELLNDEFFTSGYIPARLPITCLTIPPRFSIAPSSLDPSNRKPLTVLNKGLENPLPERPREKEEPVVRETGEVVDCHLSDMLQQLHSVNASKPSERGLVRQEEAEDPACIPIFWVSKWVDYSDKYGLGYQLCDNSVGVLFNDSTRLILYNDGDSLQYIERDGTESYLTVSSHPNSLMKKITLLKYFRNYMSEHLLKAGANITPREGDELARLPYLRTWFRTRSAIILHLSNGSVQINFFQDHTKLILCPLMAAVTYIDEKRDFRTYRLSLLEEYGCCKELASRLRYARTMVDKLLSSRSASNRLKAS

IC50 [1] [µM]	IC50 [2] [µM]	SMILES
0.33	0.024	CCn1c(=C(C#N)C(=O)NCC(F)F)sc(=CNc2cccc(OCCN(C)C)c2)c1=O (mixture of isomers) [Example 127, 2-Cyano-N-(2,2-difluoro-ethyl)-2-[5-[1-[3-(2-dimethylamino-ethoxy)-phenylamino]-meth-(E/Z)-ylidene]-3-ethyl-4-oxo-thiazolidin-(2-(E or Z))-ylidene]-acetamide]
0.78	0.15	CCNC(=O)C(C#N)=c1sc(=CNc2cccc(NC(=O)CN3CCCC3)c2)c(=O)n1CC (mixture of isomers) [Example 55, 2-Cyano-N-ethyl-2-[3-ethyl-4-oxo-5-[1-[3-(2-pyrrolidin-1-yl-acetylamino)-phenylamino]-meth-(E/Z)-ylidene]-thiazolidin-(2-(E or Z))-ylidene]-acetamide]
0.65	0.1	C#CCNC(=O)C(C#N)=c1sc(=CNc2ccc(F)c(NC(=O)C(C)(C)C)c2)c(=O)n1CC (mixture of isomers) [Example 63, 2-Cyano-2-[5-[1-[3-(2,2-dimethyl-propionylamino)-4-fluoro-phenylamino]-meth-(E/Z)-ylidene]-3-ethyl-4-oxo-thiazolidin-(2-(E or Z))-ylidene]-N-prop-2-ynyl-acetamide]
1.7	0.071	C#CCNC(=O)C(C#N)=c1sc(=CNc2ccc(OCCN(C)C)cc2)c(=O)n1CC [Comparison 307 from PCT/EP2004/ 012242, reference compound]
2.5	0.14	C#CCNC(=O)C(C#N)=c1sc(=CNc2ccc(C(=O)NCCN3CCCC3)c(NC(=O)C(C)(C)C)c2)c(=O)n1CC [Comparison 323 from PCT/EP2004/ 012242, reference compound]
0.59	0.022	C#CCNC(=O)C(C#N)=c1sc(=CNc2cccc(OCCN(C)C)c2)c(=O)n1CC (mixture of isomers) [Example 126, 2-Cyano-2-[5-[1-[3-(2-dimethylamino-ethoxy)-phenylamino]-meth-(E/Z)-ylidene]-3-ethyl-4-oxo-thiazolidin-(2Z or E)-ylidene]-N-prop-2-ynyl-acetamide]
5.6	0.074	CCn1c(=C(C#N)C(=O)NCC(F)F)sc(=CNc2ccc(OCCN(C)C)cc2)c1=O [Comparison 310 from PCT/EP2004/ 012242, reference compound]
1.6	0.073	CCn1c(=C(C#N)C(=O)NCC(F)(F)F)sc(=CNc2ccc(C(=O)NCCN3CCCC3)c(NC(=O)C(C)(C)C)c2)c1=O [Comparison 326 from PCT/EP2004/ 012242, reference compound]
0.2	0.016	CCn1c(=C(C#N)C(=O)NCC(F)(F)F)sc(=CNc2cccc(CCN3CCCC3)c2)c1=O (mixture of isomers) [Example 30, 2-Cyano-2-[3-ethyl-4-oxo-5-[1-[3-(2-pyrrolidin-1-yl-ethyl)-phenylamino]-meth-(E/Z)-ylidene]-thiazolidin-(2-(E or Z))-ylidene]-N-(2,2,2-trifluoro-ethyl)-acetamide]
2.8		CCn1c(=C(C#N)C(=O)NCC(F)(F)F)sc(=CNc2ccc(CCN3CCCC3)cc2)c1=O [Comparison 527 from PCT/EP2004/ 012242, reference compound]
0.83	0.02	CCn1c(=C(C#N)C(=O)NCC(F)(F)F)sc(=CNc2cccc(NC(=O)C(C)(C)C)n2)c1=O (mixture of isomers) [Example 41, 2-Cyano-2-[5-[1-[6-(2,2-dimethyl-propionylamino)-pyridin-2-ylamino]-meth-(E/Z)-ylidene]-3-ethyl-4-oxo-thiazolidin-(2-(E or Z))-ylidene]-N-(2,2,2-trifluoro-ethyl)-acetamide]
